A short description of this data set: Sun Screen Solubility (appearance of sunscreen dissolved in ester). The class given is physicochemical. To be noted: for Age Appearance: after 48 hours at room temperature, 24 hours in refrigerator (37° F.) and 48 hours at room temperature; for Initial Appearance: solvent ester not named.

Consider `CCCCC(CC)COC(=O)C=Cc1ccc(OC)cc1` (stereo not drawn) [Octylmethoxyciminate], for which, where the note is “1% weight sunscreen”, the “Age Appearance” value is on record as “Clear” and the “Initial Appearance” value is recorded as “Clear”.
In the case of `COc1ccc(C(=O)c2ccccc2)c(O)c1` [Benzophenone 3], for the setting “1% weight sunscreen”, the “Age Appearance” value was “Very Slight Haze^(2)” and the “Initial Appearance” value is given as “Clear”. Moreover, for the setting “3% weight sunscreen”, the “Age Appearance” value is “Very Slight Haze^(2)” and the “Initial Appearance” value is listed as “Clear”.
